Measured values: ChEMBL document CHEMBL1141898, “Halogenated and isosteric cytisine derivatives with increased affinity and functional activity at nicotinic acetylcholine receptors” (Bioorg Med Chem Lett, 2005)

Columns and labels:
[1] = target: Neuronal acetylcholine receptor; alpha3/beta4 (Rattus norvegicus, UniProt P04757+P12392); experiment: Effective concentration in KXalpha-3-beta-4R2 cells expressing rat nicotinic acetylcholine receptor alpha3-beta4 subunits; assay type: functional, cell-based
[2] = target: T1, Acetylcholine receptor; alpha1/beta1/delta/gamma (Homo sapiens, UniProt P02708+P07510+P11230+Q07001); experiment: Percentage efficacy in TE671 cells expressing acetylcholine neuromuscular receptor as change in membrane potential; assay type: functional, cell-based; conditions: TE-671
[3] = target: T2, Neuronal acetylcholine receptor; alpha4/beta2 (Homo sapiens, UniProt P17787+P43681); experiment: Percentage efficacy in K-177 cells expressing acetylcholine central neuronal receptor type alpha-4 beta2 subunits as change in membrane potential; assay type: functional, cell-based
[4] = target: T3, Neuronal acetylcholine receptor; alpha3/beta4 (Rattus norvegicus) (UniProt P04757+P12392); experiment: Percentage efficacy in KXalpha-3-beta-4R2 cells expressing rat nicotinic acetylcholine receptor alpha-3 beta4 subunits relative to (1)-epibatidine; assay type: functional, cell-based
[5] = target: T1, Acetylcholine receptor; alpha1/beta1/delta/gamma; experiment: Change in membrane potential in TE-671 cells expressing acetylcholine neuromuscular receptors; assay type: functional, cell-based
[6] = target: Neuronal acetylcholine receptor; alpha4/beta2 (Rattus norvegicus) (UniProt P09483+P12390); experiment: Binding affinity (Ki) for rat brain nicotinic receptors […] alpha-4 and beta2 subunits versus 0.5 nM [3H](1)-epibatidine
[7] = target: T3, Neuronal acetylcholine receptor; alpha3/beta4 (Rattus norvegicus); experiment: Binding affinity (Ki) for rat nicotinic acetylcholine receptor alpha3-beta4 subunits versus 0.5 nM [3H](1)-epibatidine; assay type: protein-complex assay
[8] = target: T2, Neuronal acetylcholine receptor; alpha4/beta2; experiment: Change in membrane potential in K-177 cells expressing acetylcholine central neuronal receptor alpha4-beta2 subunits; assay type: functional, cell-based

T2 sequence (P17787 whole entry): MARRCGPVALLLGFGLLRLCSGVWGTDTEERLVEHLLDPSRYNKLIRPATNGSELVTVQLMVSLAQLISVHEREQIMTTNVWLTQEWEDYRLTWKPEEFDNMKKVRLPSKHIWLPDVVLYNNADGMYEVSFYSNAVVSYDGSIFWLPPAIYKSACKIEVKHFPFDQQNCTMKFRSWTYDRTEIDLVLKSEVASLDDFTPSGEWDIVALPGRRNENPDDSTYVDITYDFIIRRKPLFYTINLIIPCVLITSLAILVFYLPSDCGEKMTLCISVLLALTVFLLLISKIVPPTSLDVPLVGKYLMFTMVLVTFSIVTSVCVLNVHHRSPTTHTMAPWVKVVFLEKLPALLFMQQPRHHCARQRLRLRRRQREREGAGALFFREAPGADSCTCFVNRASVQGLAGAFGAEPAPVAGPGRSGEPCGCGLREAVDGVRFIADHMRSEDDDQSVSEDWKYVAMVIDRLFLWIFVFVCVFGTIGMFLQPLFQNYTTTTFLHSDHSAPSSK
T2 sequence (P43681 whole entry): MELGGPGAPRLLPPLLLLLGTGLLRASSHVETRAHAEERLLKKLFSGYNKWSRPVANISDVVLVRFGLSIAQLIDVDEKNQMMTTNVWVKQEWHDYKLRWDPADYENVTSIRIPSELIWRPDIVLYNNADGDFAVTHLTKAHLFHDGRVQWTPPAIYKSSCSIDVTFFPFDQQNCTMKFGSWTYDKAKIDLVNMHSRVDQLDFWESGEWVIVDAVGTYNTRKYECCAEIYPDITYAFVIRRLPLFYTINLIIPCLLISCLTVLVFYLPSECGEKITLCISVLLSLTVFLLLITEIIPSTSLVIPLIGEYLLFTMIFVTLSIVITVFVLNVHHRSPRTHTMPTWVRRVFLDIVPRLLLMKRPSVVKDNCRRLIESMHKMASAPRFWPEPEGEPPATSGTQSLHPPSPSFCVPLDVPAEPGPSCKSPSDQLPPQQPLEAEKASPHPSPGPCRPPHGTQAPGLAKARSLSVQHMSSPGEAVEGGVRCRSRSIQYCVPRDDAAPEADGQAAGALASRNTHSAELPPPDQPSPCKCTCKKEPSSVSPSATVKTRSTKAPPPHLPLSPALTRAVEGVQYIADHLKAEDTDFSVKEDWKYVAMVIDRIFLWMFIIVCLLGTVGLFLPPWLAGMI
T1 sequence (P02708 whole entry): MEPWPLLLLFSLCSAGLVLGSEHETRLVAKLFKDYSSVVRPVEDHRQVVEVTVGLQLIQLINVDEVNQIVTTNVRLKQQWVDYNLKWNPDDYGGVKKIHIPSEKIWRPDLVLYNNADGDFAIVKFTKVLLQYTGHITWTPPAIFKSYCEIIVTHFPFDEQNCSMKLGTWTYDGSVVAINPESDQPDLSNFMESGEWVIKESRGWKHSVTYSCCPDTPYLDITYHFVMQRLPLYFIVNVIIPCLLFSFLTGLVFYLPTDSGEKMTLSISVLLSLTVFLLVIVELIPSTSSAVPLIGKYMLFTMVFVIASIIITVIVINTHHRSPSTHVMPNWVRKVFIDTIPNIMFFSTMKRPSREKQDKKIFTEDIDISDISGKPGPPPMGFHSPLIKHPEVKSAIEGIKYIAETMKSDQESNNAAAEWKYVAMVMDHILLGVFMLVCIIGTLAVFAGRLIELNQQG
T1 sequence (P07510 whole entry): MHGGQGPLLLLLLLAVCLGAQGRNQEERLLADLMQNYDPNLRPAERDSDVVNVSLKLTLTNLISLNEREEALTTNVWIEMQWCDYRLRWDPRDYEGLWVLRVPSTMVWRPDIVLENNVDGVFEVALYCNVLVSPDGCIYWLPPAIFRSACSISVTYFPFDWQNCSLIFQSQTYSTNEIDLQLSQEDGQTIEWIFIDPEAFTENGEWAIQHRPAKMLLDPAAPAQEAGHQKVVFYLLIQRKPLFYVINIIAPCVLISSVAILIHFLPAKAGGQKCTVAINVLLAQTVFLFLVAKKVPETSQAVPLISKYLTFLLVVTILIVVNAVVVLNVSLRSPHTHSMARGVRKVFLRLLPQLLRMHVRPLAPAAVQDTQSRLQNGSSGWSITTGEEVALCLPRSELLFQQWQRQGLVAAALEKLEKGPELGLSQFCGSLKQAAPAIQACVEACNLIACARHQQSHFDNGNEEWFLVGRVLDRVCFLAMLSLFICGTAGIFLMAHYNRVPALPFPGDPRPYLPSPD
T1 sequence (P11230 whole entry): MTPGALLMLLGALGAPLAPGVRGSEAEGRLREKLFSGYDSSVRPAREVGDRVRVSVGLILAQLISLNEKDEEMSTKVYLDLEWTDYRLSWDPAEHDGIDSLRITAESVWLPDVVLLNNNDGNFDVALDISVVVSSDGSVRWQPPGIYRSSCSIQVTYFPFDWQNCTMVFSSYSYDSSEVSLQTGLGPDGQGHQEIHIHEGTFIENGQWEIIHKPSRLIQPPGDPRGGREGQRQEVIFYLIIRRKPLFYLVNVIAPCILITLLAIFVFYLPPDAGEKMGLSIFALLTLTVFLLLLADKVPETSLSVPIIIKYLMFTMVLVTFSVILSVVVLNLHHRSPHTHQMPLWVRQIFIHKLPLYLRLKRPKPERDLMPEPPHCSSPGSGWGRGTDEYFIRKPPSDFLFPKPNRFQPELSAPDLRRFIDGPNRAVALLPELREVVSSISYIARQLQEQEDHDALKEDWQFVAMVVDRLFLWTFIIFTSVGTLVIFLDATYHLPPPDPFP
T1 sequence (Q07001 whole entry): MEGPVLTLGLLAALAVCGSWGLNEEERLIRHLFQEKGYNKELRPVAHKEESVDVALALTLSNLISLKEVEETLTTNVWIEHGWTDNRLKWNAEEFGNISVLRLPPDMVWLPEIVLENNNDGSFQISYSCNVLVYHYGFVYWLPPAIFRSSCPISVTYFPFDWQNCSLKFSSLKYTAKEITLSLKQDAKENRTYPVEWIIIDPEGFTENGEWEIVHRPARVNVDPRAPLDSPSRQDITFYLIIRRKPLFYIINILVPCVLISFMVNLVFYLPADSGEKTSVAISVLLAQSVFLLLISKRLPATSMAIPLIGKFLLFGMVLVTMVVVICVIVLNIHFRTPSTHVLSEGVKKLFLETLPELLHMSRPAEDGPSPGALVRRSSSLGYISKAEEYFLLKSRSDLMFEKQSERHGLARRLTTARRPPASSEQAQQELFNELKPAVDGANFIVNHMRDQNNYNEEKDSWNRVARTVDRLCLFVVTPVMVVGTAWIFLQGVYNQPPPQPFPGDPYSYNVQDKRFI
Sequence of Neuronal acetylcholine receptor; alpha3/beta4 (P04757 whole entry): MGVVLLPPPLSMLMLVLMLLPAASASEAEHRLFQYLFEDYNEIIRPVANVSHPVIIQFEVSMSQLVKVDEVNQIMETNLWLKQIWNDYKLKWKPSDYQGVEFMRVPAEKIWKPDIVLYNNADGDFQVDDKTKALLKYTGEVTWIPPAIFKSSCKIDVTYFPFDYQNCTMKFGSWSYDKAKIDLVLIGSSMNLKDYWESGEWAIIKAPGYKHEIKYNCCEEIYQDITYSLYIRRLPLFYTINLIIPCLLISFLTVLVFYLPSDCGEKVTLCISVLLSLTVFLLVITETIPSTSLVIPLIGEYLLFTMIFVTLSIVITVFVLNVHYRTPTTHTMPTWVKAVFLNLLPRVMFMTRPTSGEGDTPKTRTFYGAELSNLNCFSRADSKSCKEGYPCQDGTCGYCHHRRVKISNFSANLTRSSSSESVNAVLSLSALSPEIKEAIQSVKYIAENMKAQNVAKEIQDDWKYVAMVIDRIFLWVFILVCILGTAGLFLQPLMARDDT
Sequence of Neuronal acetylcholine receptor; alpha3/beta4 (P12392 whole entry): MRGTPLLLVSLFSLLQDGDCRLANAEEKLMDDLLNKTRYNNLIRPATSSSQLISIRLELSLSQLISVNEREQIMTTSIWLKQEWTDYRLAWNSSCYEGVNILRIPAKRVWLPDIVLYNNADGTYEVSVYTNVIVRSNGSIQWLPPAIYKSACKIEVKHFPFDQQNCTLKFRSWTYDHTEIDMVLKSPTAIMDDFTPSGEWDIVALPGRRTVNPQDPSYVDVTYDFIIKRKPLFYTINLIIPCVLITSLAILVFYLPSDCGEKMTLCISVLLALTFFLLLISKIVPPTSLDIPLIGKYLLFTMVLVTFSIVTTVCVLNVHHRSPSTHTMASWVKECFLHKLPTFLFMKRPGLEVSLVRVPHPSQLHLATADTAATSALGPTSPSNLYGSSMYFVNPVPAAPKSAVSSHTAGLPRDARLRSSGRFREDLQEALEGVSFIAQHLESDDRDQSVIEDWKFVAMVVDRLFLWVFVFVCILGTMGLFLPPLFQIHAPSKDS

SMILES | EC50 [1] [nM] | Efficacy [2] [%] | Efficacy [3] [%] | Efficacy [4] [%] | EC50 [5] [nM] | Affinity [6] [nM] | Affinity [7] [nM] | EC50 [8] [nM]
S=c1cccc2n1CC1CNCC2C1 (configuration not stated) | > 100 | < 10 | 28 | 10 | > 100 | 0.832 | 27000 | 2.2
O=c1c(Cl)cc(Cl)c2n1CC1CNCC2C1 (configuration not stated) | > 100 | 23 | 20 | < 10 | > 100 | 2.5 | 39000 | > 100
O=c1c(Br)ccc2n1CC1CNCC2C1 (configuration not stated) | 0.88 | 59 | 85 | 74 | 31 | 0.01 | 7.5 | 0.05
O=c1c(I)cc(I)c2n1CC1CNCC2C1 (configuration not stated) | > 100000 | < 10 | 42 | < 10 | > 100 | 0.52 | 4200 | 42
O=c1c(Br)cc(Br)c2n1CC1CNCC2C1 (configuration not stated) | > 100 | < 10 | 23 | < 10 | > 100 | 10.8 | 45000 | > 100
O=c1ccc(Cl)c2n1CC1CNCC2C1 (configuration not stated) | > 100 | < 10 | 58 | < 10 | > 100 | 2.5 | 3900 | 4
O=c1c(I)ccc2n1CC1CNCC2C1 (configuration not stated) | 0.55 | 46 | 92 | 78 | 45 | 0.017 | 7.4 | 0.036
O=c1c(Cl)ccc2n1CC1CNCC2C1 (configuration not stated) | 5.1 | 53 | 72 | 71 | 28 | 0.022 | 18 | 0.11
O=c1ccc(Br)c2n1CC1CNCC2C1 (configuration not stated) | 39 | < 10 | 70 | – | > 100 | 0.308 | 380 | 1.1
O=c1cccc2n1C[C@@H]1CNC[C@H]2C1 [CYTISINICLINE] | 25 | 55 | 59 | 62 | 11 | 0.124 | 220 | 0.42
C[N+]1(C)CC2CC(C1)c1cccc(=O)n1C2 (configuration not stated) | > 100 | 60 | 70 | 29 | 37 | 0.238 | 1500 | 41
Clc1ccc(C2CC3CCC2N3)cn1 (configuration not stated) [EPIBATIDINE] | – | 100 | 100 | – | 0.053 | 0.0072 | 0.51 | –
